From US8034371B2, “Intranasal compositions” (Archimedes Development Limited, priority 2003, dated 2011)
Counter-ions that a name gives are not always drawn.

Key:
[1] = Pharmacokinetic performance of intranasal and IV zolpidem formulations in sheep (Example 6); conditions: for Tmax: intranasal, zolpidem dose 20 mg, mean n = 5
Protocol: A group of five female sheep was used, each weighing around 45 kg. The formulations were administered to a randomised cross-over design. […] This dose was provided by transferring 3.5 ml of the test formulation into a glass bottle, attaching a Valois VP7 spray pump and actuator to the bottle, priming the pump and then administering two 0.1 ml sprays into each nostril.
Blood samples were collected over a 360 minute period following dosing and plasma separated. Plasma samples were assayed by an HPLC method for zolpidem content. Pharmacokinetic parameters were calculated from the plasma data.

[2] = Semi-quantitative solubility of zolpidem tartrate in different cyclodextrin solutions (Example 1); type: physicochemical; conditions: aqueous cyclodextrin solution, aqueous with cosolvent or surfactant or cyclodextrin, thermodynamic from solid, room temperature
Protocol: A semi-quantitative comparison was made of the ability of different cyclodextrins to enhance the aqueous solubility of zolpidem tartrate.
Aqueous solutions were prepared containing 200, 300 and 400 mg/ml of three types of cyclodextrin. These were hydroxypropyl-β-cyclodextrin (HP-CD) (Cavamax® W7 HP Pharma, Wacker, Germany), methylated-β-cyclodextrin (M-CD) (Cavamax® W7 M Pharma, Wacker) and sulfobutylether-β-cyclodextrin (SBE-CD) (Captisol®, CyDex, USA). 25 mg samples of zolpidem tartrate (ZMC, Zheijang, Hangzhou, China) were added to a 0.5 ml portion of each cyclodextrin solution. The mixtures (containing 50 mg/ml drug) were stirred overnight at room temperature. If drug dissolved then more was added. If undissolved drug remained then an additional 0.5 ml of cyclodextrin solution was added and stirring continued. From this experiment an estimate could be made of zolpidem tartrate solubility in the different cyclodextrin solutions.

[3] = Saturated solubility of zolpidem tartrate in SBE-CD solutions with and without chitosan, UV 296 nm (Example 2); type: physicochemical; conditions: aqueous SBE-CD solution, 18 °C, aqueous with cosolvent or surfactant or cyclodextrin, thermodynamic from solid
Protocol: A stock solution was prepared containing 400 mg/ml SBE-CD in water and then dilutions made to 100, 150, 200, 250 and 300 mg/ml. Into 2 ml portions of the stock and diluted SBE-CD solutions was dissolved 10 mg of chitosan glutamate (Protasan UPG213, NovaMatrix, Drammen, Norway). To each of these samples of SBE-CD/chitosan solution and to each of six chitosan-free 2 ml samples of SBE-CD solutions were added 140 mg samples of zolpidem tartrate. The samples were left to stir overnight at room temperature (18° C.). If during this time all the drug dissolved, further amounts were added until a suspension was formed (i.e. saturated drug solution formed). After further stirring for up to 72 hours, suspensions were filtered (0.45 μm filter, Gelman, Portsmouth, UK) to recover saturated zolpidem tartrate solutions. The filtrate samples were diluted in water and the UV absorbance at 296 nm measured. By reference to a calibration curve of UV absorbance (296 nm) vs. zolpidem concentration, the concentration of zolpidem in the samples was calculated. Solubility data are presented in Table 2 and presented graphically in FIG. 1.

Cc1ccc(-c2nc3ccc(C)cn3c2CC(=O)N(C)C)cc1 [zolpidem, N,N,6-trimethyl-2-(4-methylphenyl)-imidazo[1,2-a]pyridine-3-acetamide]
Tmax ([1]; female, plasma, inhaled or intranasal, 20 mg, Tmax): 13 min
Effect of inclusion of chitosan on bioavailability ([1]; intranasal solution with vs without chitosan): significantly enhanced
Tmax [1]: 16 min

Cc1ccc(-c2nc3ccc(C)cn3c2CC(=O)N(C)C)cc1 [zolpidem tartrate]
solubility ([2]; HP-CD 200 mg/ml): 25 to 31 mg/mL
solubility ([2]; HP-CD 300 mg/ml): 31 to 36 mg/mL
solubility ([2]; HP-CD 400 mg/ml): 36 to 50 mg/mL
solubility ([2]; M-CD 200 mg/ml): 25 to 31 mg/mL
solubility ([2]; M-CD 300 mg/ml): 31 to 36 mg/mL
solubility ([2]; M-CD 400 mg/ml): 31 to 36 mg/mL
solubility ([2]; SBE-CD 200 mg/ml): > 50 mg/mL
solubility ([2]; SBE-CD 300 mg/ml): 50 to 56 mg/mL
solubility ([2]; SBE-CD 400 mg/ml): ~60 mg/mL
solubility ([3]; SBE-CD 100 mg/ml, 5 mg/ml chitosan glutamate, read-out: Zolpidem tartrate solubility in presence of 5 mg/ml chitosan glutamate): 46.2 mg/mL
solubility ([3]; SBE-CD 100 mg/ml, no chitosan, read-out: Zolpidem tartrate solubility): 41.9 mg/mL
solubility ([3]; SBE-CD 150 mg/ml, 5 mg/ml chitosan glutamate, read-out: Zolpidem tartrate solubility in presence of 5 mg/ml chitosan glutamate): 51.9 mg/mL
solubility ([3]; SBE-CD 150 mg/ml, no chitosan, read-out: Zolpidem tartrate solubility): 46.5 mg/mL
solubility ([3]; SBE-CD 200 mg/ml, 5 mg/ml chitosan glutamate, read-out: Zolpidem tartrate solubility in presence of 5 mg/ml chitosan glutamate): 55.6 mg/mL
solubility ([3]; SBE-CD 200 mg/ml, no chitosan, read-out: Zolpidem tartrate solubility): 57.3 mg/mL
solubility ([3]; SBE-CD 250 mg/ml, 5 mg/ml chitosan glutamate, read-out: Zolpidem tartrate solubility in presence of 5 mg/ml chitosan glutamate): 55.9 mg/mL
solubility ([3]; SBE-CD 250 mg/ml, no chitosan, read-out: Zolpidem tartrate solubility): 56.1 mg/mL
solubility ([3]; SBE-CD 300 mg/ml, 5 mg/ml chitosan glutamate, read-out: Zolpidem tartrate solubility in presence of 5 mg/ml chitosan glutamate): 63.7 mg/mL
solubility ([3]; SBE-CD 300 mg/ml, no chitosan, read-out: Zolpidem tartrate solubility): 57.5 mg/mL
solubility ([3]; SBE-CD 400 mg/ml, 5 mg/ml chitosan glutamate, read-out: Zolpidem tartrate solubility in presence of 5 mg/ml chitosan glutamate): 68.1 mg/mL
solubility ([3]; SBE-CD 400 mg/ml, no chitosan, read-out: Zolpidem tartrate solubility): 69 mg/mL
